Source: PubChem BioAssay AID248 (DTP/NCI, 2004)
Where “and” joins values, the source holds several entries; their conditions need not be identical. Equal values may be shown once. Toxic doses and inconclusive results are not listed. Cut-off read from the data, not from the text of the source: active = T/C of 150% or more; inactive = T/C below 125%.

Tested on: L1210 leukemia ip in BDF1 mice, survival T/C
Assay: NCI In Vivo Anticancer Drug Screen. Data for tumor model L1210 Leukemia (intraperitoneal) in B6D2F1 (BDF1) mice
Details: endpoint: mean survival time, higher = longer survival
Summary of the method: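 Transplanted-tumor mice were given test agent; controls received vehicle only. Survival readings from the two groups were divided (treated over control).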

[1] = dose: 100.0 mg/kg/injection, schedule: Q01DX001 (ip), vehicle: saline
[2] = dose: 200.0 mg/kg/injection, schedule: Q01DX001 (ip), vehicle: saline
[3] = dose: 400.0 mg/kg/injection, schedule: Q01DX001 (ip), vehicle: saline
[4] = dose: 12.5 mg/kg/injection, schedule: Q01DX009 (ip), vehicle: saline
[5] = dose: 50.0 mg/kg/injection, schedule: Q01DX009 (ip), vehicle: saline
[6] = dose: 100.0 mg/kg/injection, schedule: Q01DX001 (ip), vehicle: Klucel (hydroxypropylcellulose) (HPC)
[7] = dose: 100.0 mg/kg/injection, schedule: Q01DX009 (ip), vehicle: saline
[8] = dose: 200.0 mg/kg/injection, schedule: Q01DX001 (ip), vehicle: Klucel (hydroxypropylcellulose) (HPC)

Measured: T/C

COc1ccc(OC)c(NC(=O)c2ccc(N(CCc3cnc4nc(NC(C)=O)[nH]c(=O)c4n3)C(=O)C(F)(F)F)cc2)c1
inactive: dose: 100.0 mg/kg/injection, schedule: Q01DX009 (ip), vehicle: carboxymethylcellulose (CMC) 104 % of control | dose: 100.0 mg/kg/injection, schedule: Q04DX003 (ip), vehicle: other 97 % of control | dose: 200.0 mg/kg/injection, schedule: Q01DX009 (ip), vehicle: carboxymethylcellulose (CMC) 94 % of control | dose: 200.0 mg/kg/injection, schedule: Q04DX003 (ip), vehicle: other 97 % of control | dose: 400.0 mg/kg/injection, schedule: Q01DX009 (ip), vehicle: carboxymethylcellulose (CMC) 94 % of control | dose: 400.0 mg/kg/injection, schedule: Q04DX003 (ip), vehicle: other 92 % of control

Brc1cscc1Cc1cscc1Br
inactive: dose: 100.0 mg/kg/injection, schedule: Q01DX001 (ip), vehicle: saline with Tween-80 91 % of control | dose: 200.0 mg/kg/injection, schedule: Q01DX001 (ip), vehicle: saline with Tween-80 97 % of control | dose: 400.0 mg/kg/injection, schedule: Q01DX001 (ip), vehicle: saline with Tween-80 94 % of control

O=C(CSCCCCl)OCCSCCCCl
inactive: dose: 17.5 mg/kg/injection, schedule: Q01DX Z (ip), vehicle: saline 93 % of control | dose: 70.0 mg/kg/injection, schedule: Q01DX Z (ip), vehicle: saline 104 % of control

CC(C)OC(=S)SC(C(=O)c1ccccc1)c1ccccc1 (configuration not stated)
inactive: dose: 100.0 mg/kg/injection, schedule: Q04DX002 (ip), vehicle: Klucel (hydroxypropylcellulose) (HPC) 91 % of control | dose: 200.0 mg/kg/injection, schedule: Q04DX002 (ip), vehicle: Klucel (hydroxypropylcellulose) (HPC) 91 % of control | dose: 400.0 mg/kg/injection, schedule: Q04DX002 (ip), vehicle: Klucel (hydroxypropylcellulose) (HPC) 91 % of control

CCN(CC)c1cccc(OC(=O)NC)c1
inactive: dose: 0.75 mg/kg/injection, schedule: Q01DX009 (ip), vehicle: saline with Tween-80 91 % of control | dose: 1.5 mg/kg/injection, schedule: Q01DX009 (ip), vehicle: saline with Tween-80 94 % of control | dose: 3.0 mg/kg/injection, schedule: Q01DX009 (ip), vehicle: saline with Tween-80 94 % of control

CCCCN(CCCC)C(=O)C1C=C2c3cccc4[nH]cc(c34)CC2N(C)C1 (configuration not stated)
inactive: dose: 100.0 mg/kg/injection, schedule: Q01DX009 (ip), vehicle: water 104 % of control | dose: 200.0 mg/kg/injection, schedule: Q01DX009 (ip), vehicle: water 110 % of control

O=S(=O)(/N=[N+](\[O-])c1ccccc1)c1ccccc1
inactive: [1] 103 % of control | [2] 100 % of control | [3] 103 % of control

CCCCN(CCCC)CC(O)c1cc(OC)c2cc(Cl)cc(Cl)c2n1 (configuration not stated)
inactive: dose: 100.0 mg/kg/injection, schedule: Q04DX003 (ip), vehicle: saline with Tween-80 98 % of control | dose: 200.0 mg/kg/injection, schedule: Q04DX003 (ip), vehicle: saline with Tween-80 91 % of control | dose: 400.0 mg/kg/injection, schedule: Q04DX003 (ip), vehicle: saline with Tween-80 94 % of control

C[N+](C)(C)CCOc1ccccc1Cc1ccccc1
inactive: dose: 1.56 mg/kg/injection, schedule: Q01DX003 (ip), vehicle: saline 96 % of control | dose: 3.12 mg/kg/injection, schedule: Q01DX003 (ip), vehicle: saline 100 % of control | dose: 3.12 mg/kg/injection, schedule: Q01DX009 (ip), vehicle: saline 96 % of control and 100 % of control | dose: 6.25 mg/kg/injection, schedule: Q01DX003 (ip), vehicle: saline 96 % of control | dose: 6.25 mg/kg/injection, schedule: Q01DX009 (ip), vehicle: saline 106 % of control | [4] 105 % of control and 89 % of control | dose: 12.5 mg/kg/injection, schedule: Q04DX003 (ip), vehicle: saline 111 % of control

O=C(O)C1C(C(=O)O)C2(Cl)C(Cl)=C(Cl)C1(Cl)C2(Cl)Cl.[Co] (configuration not stated)
inactive: [4] 116 % of control | dose: 25.0 mg/kg/injection, schedule: Q01DX009 (ip), vehicle: saline sonified 112 % of control | dose: 25.0 mg/kg/injection, schedule: Q01DX009 (ip), vehicle: saline 110 % of control | dose: 33.0 mg/kg/injection, schedule: Q01DX009 (ip), vehicle: saline sonified 108 % of control | dose: 50.0 mg/kg/injection, schedule: Q01DX001 (ip), vehicle: Klucel (hydroxypropylcellulose) (HPC) 98 % of control | [5] 115 % of control | dose: 75.0 mg/kg/injection, schedule: Q01DX009 (ip), vehicle: saline sonified 112 % of control | [6] 110 % of control | [7] 124 % of control | [8] 106 % of control

CCCCC(=O)N/N=C/c1ccc(OC)c(OC)c1
inactive: [1] 100 % of control | [2] 94 % of control | [3] 91 % of control

CC1(C)C2CCC1(C(=O)O)C(=O)C2 (configuration not stated)
inactive: dose: 100.0 mg/kg/injection, schedule: Q01DX009 (ip), vehicle: saline with Tween-80 96 % of control | dose: 200.0 mg/kg/injection, schedule: Q01DX009 (ip), vehicle: saline with Tween-80 95 % of control

CC(=O)c1c(C)cc(=O)[nH]c1O
inactive: [1] 107 % of control | [2] 97 % of control | [3] 110 % of control

Cc1ccc(S(=O)(=O)NC(=O)NCCS)cc1
inactive: dose: 100.0 mg/kg/injection, schedule: Q04DX003 (ip), vehicle: saline 100 % of control | dose: 200.0 mg/kg/injection, schedule: Q04DX003 (ip), vehicle: saline 102 % of control | dose: 400.0 mg/kg/injection, schedule: Q04DX003 (ip), vehicle: saline 96 % of control

CCC1CN1P1(=O)OCC(C)(C(=O)OC)CO1 (configuration not stated)
inactive: [1] 101 % of control | [2] 108 % of control | [3] 101 % of control

N#CC(N)c1ccccc1 (configuration not stated)
inactive: dose: 75.0 mg/kg/injection, schedule: Q01DX001 (ip), vehicle: saline 103 % of control

CN(C)N=C1CCCC1
inactive: [5] 103 % of control | [7] 103 % of control

c1ccc2c(c1)NC1CCCCC21 (configuration not stated)
inactive: [6] 90 % of control | [8] 97 % of control | dose: 400.0 mg/kg/injection, schedule: Q01DX001 (ip), vehicle: Klucel (hydroxypropylcellulose) (HPC) 93 % of control
